Reference: patent publication US8729097B2, “Quinoline compounds as inhibitors of angiogenesis, human methionine aminopeptidase, and SIRT1, and methods of treating disorders” (The Johns Hopkins University, priority 2008, dated 2014)
pIC50: −log10 of the molar value. Where two headings read alike, the source gives them in different places.

Columns and labels:
HUVEC [1] = assay: HUVEC proliferation, [3H]-thymidine incorporation assay; format: cell-based, human; details: Homo sapiens, HUVEC
Procedure: HCC1954 cells were grown in RPMI1640 containing 10% FBS. HUVEC were grown using the EGM-2 bullet kit (Cambrex) as per manufacturer's instructions. The cells were maintained in a humidified incubator adjusted to 5% CO2. For drug screening, 10 mM stock solutions of Johns Hopkins Drug Library were arrayed in 96-well plates and screened at a final concentration of 10 μM. The cell growth was determined using a [^3H]-thymidine incorporation assay. Cells (typically 5,000 cells/well) were seeded in 96-well plates containing 0.2 ml of growth media and allowed to adhere for 24 h. The cells were then treated with drugs for 24 h. Cells were pulsed with 1 μCi [^3H]-thymidine (MP Biomedicals, 6.7 Ci mmol^−1) for 8 h and harvested, upon trypsin treatment, onto glass fiber filters (Wallac, Turku, Finland), from which ^3H counts were determined using a Perkin Elmer MicroBeta plate reader.

[2] = tested on: Saccharomyces cerevisiae strain BY4743; assay: Yeast growth assay (wild type, map1Δ, map2Δ); format: cell-based; details: drug on paper disc
Description: Saccharomyces cerevisiae strain BY4743 (MATa/α his3Δ1/his3Δ1 leu2Δ0/leu2Δ0 lys2Δ0/LYS2) and its isogenic haploid derivatives for MetAP1 (map1Δ) and MetAP2 (map2Δ) deletion mutants were used for yeast growth assays. Drugs dissolved in DMSO were spotted onto sterile filter disks and dried before experiments. Exponentially growing yeast strains were mixed with top agar and plated on YPD (1% yeast extract/2% peptone/2% glucose) plates. The filter disks were then placed on the YPD plates containing yeasts and the incubation was continued for 48 h at 30° C.

HUVEC [3] = assay: Senescence associated-β-galactosidase (SA-β-gal) staining in HUVEC; format: cell-based, human
Procedure: Cells in 6-well plates were washed with PBS and fixed with 3% paraformaldehyde. After washing with PBS, the cells were incubated for 24 h at 37° C. (without CO2, protected from light) in freshly prepared SA-β-gal staining solution containing 1 mg/ml 5-bromo-4-chloro-3-indolyl β-D-galactopyranoside (X-gal), 5 mM potassium ferrocyanide, 5 mM potassium ferricyanide, 150 mM NaCl, 2 mM MgCl2 and 40 mM citric acid, titrated with NaH2PO4 to pH 6.0. SA-β-gal solution was then removed and the cells were washed with PBS. The stained cells were observed under a microscope.

[4] = tested on: acetylation of p53 (K382), α-tubulin and histone-H3; assay: Acetylation status of sirtuin substrates in HUVEC (Western blot); format: cell-based, human
Procedure: Cells were lysed by adding 1 volume of 2× Laemmli buffer and were then boiled for 5 min. The samples were separated by SDS-PAGE and transferred to nitrocellulose membrane (Bio-Rad). Proteins were detected using primary antibodies for p53 (Santa Cruz), met-14-3-3γ (Novus), p21 (Santa Cruz), Rb (Santa Cruz), MetAP2 (Hu, X. et al (2006) Proc. Natl. Acad. Sci. U.S.A. 103, 18148-18153), SirT1 (Santa Cruz), acetyl-p53-K382 (Abeam), acetyl-tubulin (Sigma), histone-H3 (Santa Cruz), acetyl-H3 (Santa Cruz) and α-tubulin (TU-02, Santa Cruz) followed by the incubation with horseradish peroxidase (HRP)-conjugated anti-mouse or anti-rabbit antibodies (Santa Cruz) and enhanced chemiluminescence (ECL, Amersham).

HUVEC [5] = assay: Endothelial cell tube formation assay; format: cell-based, human; details: Matrigel; EX527 1 μM, TNP470 10 nM
Procedure: HUVEC were seeded on a 96-well plate (2×10^4 cells/well) coated with Matrigel. The cells were then incubated for 16˜18 h in a humidified 5% CO2 incubator at 37° C. The cells were washed carefully with PBS once and Calcein-AM solution in PBS was then added to a final concentration of 2 μM. After incubation for an additional 30 min, the cells were washed carefully with PBS and observed under a fluorescence microscope (485 nm excitation/520 nm emission). The tube formed was quantified using AngioQuant v1.33 (The MathWorks).

[6] = tested on: angiogenesis in Matrigel plugs; assay: Matrigel plug assay in vivo; details: 60 mg/kg, i.p., nude mice, versus vehicle
Procedure: Female athymic nude mice (NCR nu/nu, 4-6 weeks old) were purchased from NCI-Frederick, Md. and treated in accordance with Johns Hopkins Animal Care and Use Committee procedures. […] Mice were pre-treated for 3 days before 0.5 mL of Matrigel (BD Biosciences) containing 150 ng/ml VEGF and 200 ng/ml bFGF was implanted subcutaneously. Drug treatment was continued daily for an additional 10 days. Mice were sacrificed, and Matrigel plugs were harvested, fixed in neutral buffered formalin, and processed for histology using MAS-trichrome staining. A cross-section of the entire Matrigel plug was photographed at ×100. And erythrocyte-filled blood vessels were counted per field in a blinded manner.

[7] = tested on: HCC1954 human breast cancer cells; assay: Breast cancer xenografts; format: in vivo, mice
Procedure: Approximately two million of HCC1954 cells were injected bilaterally and subcutaneously into female athymic nude mice (NCR nu/nu, n=5/group). After tumors became palpable, control mice were treated with vehicle (peanut oil with 5% DMSO). […] The tumor volume was measured using a vernier caliper and calculated according to the modified ellipsoid formula: Tumor volume (mm^3)=(short axis)^2×(long axis)×π/6
After 30 days of treatment, the mice were sacrificed and the tumor tissues were extracted for immunohistochemical analysis and Western blots.

SirT3 = SirT3 (Homo sapiens, UniProt Q9NTG7); assay: biochemical
Sequence of SirT3 (Q9NTG7 whole entry): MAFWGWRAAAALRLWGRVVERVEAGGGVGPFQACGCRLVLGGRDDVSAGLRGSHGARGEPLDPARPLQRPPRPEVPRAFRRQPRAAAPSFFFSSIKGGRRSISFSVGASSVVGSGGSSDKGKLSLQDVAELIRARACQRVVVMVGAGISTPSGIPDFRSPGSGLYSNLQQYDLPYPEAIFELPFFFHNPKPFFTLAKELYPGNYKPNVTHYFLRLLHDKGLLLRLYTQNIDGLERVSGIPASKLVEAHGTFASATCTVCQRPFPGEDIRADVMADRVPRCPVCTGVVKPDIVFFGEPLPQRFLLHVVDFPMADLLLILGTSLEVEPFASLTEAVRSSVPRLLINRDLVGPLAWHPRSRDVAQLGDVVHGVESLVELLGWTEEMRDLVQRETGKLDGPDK
Procedure: The sirtuin fluorometric assay kits were obtained from Biomol. The assay was conducted according to the manufacturer's instruction. One unit of SirT1 was used per reaction. For SirT2 and SirT3, 2 units were used for the assay.

O=[N+]([O-])c1ccc(O)c2ncccc12 [Entry 1c, nitroxoline]
pIC50 (HUVEC [1]; read-out: Selectivity HUVEC IC50): 5.70 | pIC50 (HUVEC [1]; Table 4, read-out: HUVEC IC50): 5.70 | growth of MetAP-1 deletion mutant (map1Δ) ([2]; map1Δ): significantly inhibited | growth of MetAP-2 deletion mutant ([2]; map2Δ): did not affect the growth | growth of wild-type yeast ([2]; wild type): did not inhibit the yeast growth | premature senescence in HUVEC (HUVEC [3]; 72 h, valproic acid 0.1 mM, TNP-470 20 nM): induced premature senescence | reversibility of senescence (HUVEC [3]; 72 h treatment, then fresh media for an additional 48 h): remained senescent | acetylation of p53-K382 ([4]; HUVEC treated for 20 h): increased the acetylation of p53-K382 | acetylation status of tubulin or histone-H3 ([4]; HUVEC, 6 h or 20 h): did not change the acetylation status | acetylation of tubulin and histone-H3 in the presence of TSA ([4]; HUVEC, with TSA (200 nM), 24 h, nitroxoline 20 μM): significantly increased the acetylation of both tubulin and histone-H3 | HUVEC tube formation (HUVEC [5]): inhibited | density of new blood vessels in Matrigel plugs [6]: dramatic reduction in the density of new blood vessels | level of p53 protein in tumor tissues ([7]; Western blot of tumor tissues): increased | p53 acetylation in tumor tissues ([7]; Western blot of tumor tissues): significantly induced p53 acetylation | tumor-associated angiogenesis ([7]; anti-CD31 immunohistochemical staining): strongly inhibited | inhibition of growth of HCC1954 xenografts ([7]; day 30, 60 mg/kg i.p., nude mice): 55% | pIC50 (SirT3): < 4.30
